Assay results taken from patent publication US11013690B2, “Esterification/saponification-based method for liposomal encapsulation of hydrophilic glucuronides” (priority 2016, dated 2021).

Key:
[1] = Pharmacokinetics of free vs liposomal 9AC-G in mice; format: in vivo, NOD/SCID mice; details: 25 mg/kg intravenously, 9AC-G in serum by HPLC
Description: FIG. 39 illustrates the pharmacokinetics in mice of free 9AC-G compared to liposomal 9AC-G. A dose of 25 mg/kg of either free 9AC-G or liposomal 9AC-G was injected intravenously by the tail of NOD/SCID mice. Blood samples were collected at different times and the concentration of 9AC-G was determined by HPLC. n=3, Error bars, SD.
This example relates to a test of whether the liposomal formulation of 9AC-G could display prolonged pharmacokinetics when compared to free 9AC-G. Free and liposomal 9AC-G were delivered intravenously at 25 mg/kg to 12 to 16 weeks old female mice. The total serum concentrations of 9AC-G were monitored by collecting blood samples in which the plasma was isolated from the red blood cells by centrifugation. The serum proteins were precipitated in acetonitrile:methanol:0.2 M trichloroacetic acid (2:2:1, vol:vol mixture). Samples were centrifuged to eliminate precipitated proteins and diluted in buffer containing 1% triton X-100 to lyse the liposomes and analyze 9AC-G quantities by HPLC.

[2] = biological target: T1, human beta-glucuronidase (Homo sapiens, UniProt P08236); experiment: Regeneration of parental drug by beta-glucuronidase at pH 4.5; format: biochemical; details: pH 4.5 to mimic lysosomes
T1 sequence (P08236 23-651): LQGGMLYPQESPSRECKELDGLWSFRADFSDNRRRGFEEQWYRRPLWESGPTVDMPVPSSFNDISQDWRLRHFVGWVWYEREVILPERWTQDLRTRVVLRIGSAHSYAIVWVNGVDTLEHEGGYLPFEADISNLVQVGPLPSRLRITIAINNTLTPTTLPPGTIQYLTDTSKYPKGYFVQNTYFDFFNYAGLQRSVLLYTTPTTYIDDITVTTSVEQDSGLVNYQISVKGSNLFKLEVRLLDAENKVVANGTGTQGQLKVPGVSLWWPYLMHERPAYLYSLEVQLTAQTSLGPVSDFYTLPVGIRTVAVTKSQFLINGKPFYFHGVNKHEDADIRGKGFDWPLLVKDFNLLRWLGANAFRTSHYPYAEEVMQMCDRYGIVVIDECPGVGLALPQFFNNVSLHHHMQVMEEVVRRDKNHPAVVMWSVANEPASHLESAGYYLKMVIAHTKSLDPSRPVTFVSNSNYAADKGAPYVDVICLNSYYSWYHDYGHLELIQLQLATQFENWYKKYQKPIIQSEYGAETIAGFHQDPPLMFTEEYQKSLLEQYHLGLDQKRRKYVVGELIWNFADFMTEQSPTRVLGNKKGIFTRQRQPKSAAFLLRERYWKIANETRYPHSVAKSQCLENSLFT
Description: FIG. 28 illustrates the reversibility of the conjugation of the glucuronide residue to a parental compound. Here, 9AC was analyzed by HPLC before (1.) and after glucuronide conjugation (2.). […] 9AC-G incubated with human enzyme beta-glucuronidase at pH 4.5 to mimic the lysosomal conditions, could regenerate the original parental drug 9AC (5.). (RFU=relative fluorescent units)
In real conditions, it is extrapolated that liposomal glucuronides can be uptake by cells and that the liposomes can release the glucuronide inside lysosomes after degradation as illustrated in FIG. 29. Illustrations of compound regeneration are provided using 2 examples: 9AC-G (linked by self-immolative chemical linker that is removed upon enzyme hydrolysis, FIG. 30) and fluorescein (directly linked to glucuronide residues, FIG. 31). Effective amounts of 9AC were found in the medium of HCC36 and MDA-MB468 human cancer cells after addition of 9AC-G liposomes. On the other hand, when no cells were present, no 9AC was found, meaning that the regeneration of 9AC was dependent on the cells (FIG. 32). […] To further illustrate the parental compound regeneration ability, we incubated HCC36 cells engineered with LDL-R/anti PEG receptors with liposomal fluorescein-di-G (non-fluorescent). At early time, the liposomes (red) were taken up by the cells and started to colocalize with the lysosomes (magenta). […]

[3] = test system: HCC36 human hepatocellular carcinoma cells; experiment: Effect of human serum albumin on toxicity to HCC36 cells; format: cell-based; details: HCC36, human serum albumin 40 mg/mL, 24 hours, 3H-thymidine incorporation
Description: FIG. 35 illustrates the neutralizing effect of human serum albumin on free 9AC-G. Human hepatocellular carcinoma cells (HCC36) were exposed to free 9AC-G with or without human serum albumin (40 mg/mL) for 24 hours. Cell proliferation was observed by ^3H-thymidine incorporation assay. Human serum albumin inhibits the potency of free 9AC-G that is not loaded into liposomes. n=3, Error bars, SD.
FIG. 36 illustrates the inability of human serum albumin to neutralize 9AC-G after liposomal loading. Human hepatocellular carcinoma cells (HCC36) were exposed to liposomal 9AC-G with or without human serum albumin (40 mg/mL) for 24 hours. Cell proliferation was observed by ^3H-thymidine incorporation assay.
Anticancer activity of liposomes loaded with glucuronide-mE to encapsulate glucuronide can be assessed in-vitro or in-vivo. In an in-vitro assay, cancer cell lines can be seeded in wells or plates and various concentrations of liposomal glucuronide can be applied to the cells for a period of time, such as 24 hours, and cell killing can be assayed. Tritiated thymidine can be used to assay cell proliferation. […] Liposomal doxorubicin and liposomal 9AC-G toxicities were assessed with 3 human colon cancer cells (LS174T, HT29, and HCT16), 3 human lung cancer cells (CL1-5, NCI-H2170, and SK-MES-1) and 1 human breast cancer cells (MDA-MB-468). […]

[4] = test system: MDA-MB-468 tumors; experiment: In-vivo anti-tumor activity, MDA-MB-468 subcutaneous tumors; design: species or system NOD/SCID mice; details: i.v. weekly x4, free 9AC 2 mg/kg, free 9AC-G 10 mg/kg; for mice survival: 9AC-G liposomes 10 mg/kg
Source text: FIG. 41 illustrates the in-vivo anti-tumor activity of liposomal 9AC-G. NOD/SCID mice were inoculated subcutaneously with 10^7 MDA-MB-468 cells. When tumors reached 75 to 100 mm^3 the treatment started at one injection per week for a total of 4 treatments. Figure represents the tumor volume evolution. n=7, Error bars: SD. Differences in tumor sizes between groups were examined for statistical significance using one-way ANOVA followed by Dunnettt's multiple comparisons. Stars indicate significance; n.s=non-significant and p<0.0001 (***)
FIG. 42 illustrates the mice survival after treatment with 9AC, 9AC-G or 9AC-G liposomes. n=7, Error bars, SD
FIG. 44 illustrates the tumor growth of MDA-MB-468 human breast cancer cells (10^7 cells in 100 μL PBS) injected subcutaneously in twelve to sixteen-week old female NOD/SCID immunodeficient mice. When tumors reached sizes from 75 mm^3 to 100 mm^3, groups of 7 mice were treated at weekly intervals for four times with intravenous injections of 9AC-G (10 mg/kg) or doxorubicin liposomes (Doxisome®, 1 mg/kg). n=7, Error bars, SD. Differences in tumor sizes between groups were examined for statistical significance using one-way ANOVA followed by Dunnettt's multiple comparisons. Stars indicate significance; p<0.001 (**) and p<0.0001 (***)
Next, in an in-vive model of breast cancer in NOD/SCID mice, 10^7 MDA-MD468 cells were inoculated subcutaneously per mouse. The treatment was started when the tumors reached an average size of 75 to 100 mm^3. Mice were intravenously injected with 9AC-G liposomes at 10 mg/kg, free parental 9AC (2 mg/kg), or free 9AC-G (10 mg/kg). […] Appreciably, low toxicity was observed and the tumors were undetectable when treated with 9AC-G liposomes after 4 treatments for 6 over 7 mice, as shown in FIG. 41. […] We observed that the amount of activated parental drug 9AC was over 30 folds higher in the tumor than in the blood 24 hours after injection of 9AC-G liposomes (FIG. 43). This phenomenon is likely due to the enhanced permeability and retention effect (EPR) by which nanoparticles accumulate and are retained in tumor through leaky blood tumor vasculature.

[5] = Octanol-to-water partitioning assay; format: physicochemical; details: 1-octanol / citric acid pH 5, room temperature
Description: FIG. 4 illustrates the octanol to water distribution of glucuronides and glucuronide-mE. Glucuronides and glucuronide-mE were incubated overnight in immiscible aqueous and organic phases (citric acid pH 5 and 1-octanol) under gentle shaking at room temperature. Samples from each phase were analyzed to characterize the distribution of the compounds. n=3-5
FIG. 5 illustrates the Log P of glucuronides and glucuronide-mE compounds in each phase of 1-octanol and citric acid pH 5 following the formula: log Poctanol/water=log ([solute]octanol/[solute]water). n=3-5. Error bars, SD
9-aminocamptothecin glucuronide (9AC-G), 5,6-dihydro-4H-benzo[de]quinoline-camptothecin-β-D-glucuronide (BQC-G) and 4-methylumbelliferyl-β-D-glucuronide (4MU-G) can be incubated in methanol in the presence of a strong acid (sulfuric acid) as a catalyzer (FIG. 2).
Distribution of the different compounds were measured by dilution in a 1:1 volume of octanol and 100 mM citric acid buffer at pH 5 (FIG. 4). The solutions were gently stirred for 24 hours at room temperature, spun down at 2,500×g and glucuronides or glucuronide-mE in each phase was quantified by HPLC and the partition coefficients were calculated as log Poctanol/water=log ([solute]octanol/[solute]water) ([…]).

[6] = pH stability of 9AC-GmE (HPLC); format: physicochemical
Description: FIG. 6 illustrates the stability of 9-aminocamptothecin glucuronide methylester (9AC-GmE) at acidic pH. 9AC-GmE stability was monitored over time at 75° C., at pH 5. Quantification was done by HPLC at excitation and emission of 370 and 460 nm, respectively. (Abbreviations: 9AC, 9-aminocamptothecin; 9AC-G, 9-aminocamptothecin glucuronide; 9AC-GmE, methylester form of 9AC-G). n=3. Error bars, SD.
FIG. 7 illustrates the conversion of 9-aminocamptothecin glucuronide methylester (9AC-GmE) to 9-aminocamptothecin glucuronide (9AC-G) at basic pH. 9AC-GmE conversion to 9AC-G was monitored over time at 75° C., at pH 8.5. Quantification was done by HPLC at excitation and emission of 370 and 460 nm, respectively. n=3. Error bars, SD.
The behavior of 9AC-GmE was investigated at different pH and temperatures.

Molecule | mice survival [4] | effect on tumor growth [4] | partition versus corresponding glucuronide [5] | also measured
9-aminocamptothecin glucuronide [9AC-G] | not | little effect on the tumor growth |  | initial half-life [1]: 9.3 min; terminal half-life [1]: 38.6 min; conversion to parental drug by beta-glucuronidase [2]: completely converted to 9AC; effect of human serum albumin on toxicity [3]: toxicity is suppressed
9-aminocamptothecin glucuronide methylester [9AC-GmE] |  |  | increased partition into an organic phase | stability of methylester group at basic pH (saponification to 9AC-G) ([6]; basic pH (8.5), 75° C.): easily is hydrolyzed; stability at acidic pH ([6]; pH 5, 75° C.): very stable
COC(=O)C1OC(Oc2ccc3c(C)cc(=O)oc3c2)C(O)C(O)C1O (stereo not drawn) [4MU-GmE] |  |  | increased partition into an organic phase | 
CC[C@@]1(O)C(=O)OCc2c1cc1n(c2=O)Cc2cc3c(N)cccc3nc2-1 [9AC, 9-aminocamptothecin, reference compound] | not | little effect on the tumor growth |  | 
